In US11261222B2, “Transdermal peptide with nuclear localization ability and use thereof” (SOOCHOW UNIVERSITY, priority 2017, dated 2022):
Where a SMILES comes first, the peptide text is derived from it. The star is where a group is joined. FITC = O=C1OC2(c3ccc(O)cc3Oc3cc(O)ccc32)c2ccc(NC(=S)*)cc21

Columns and labels:
skin of SD rats = assay: transdermal penetration effect on back skin of SD rats, fluorescence microscopy of skin sections; assay type: in vivo; details: 50 μL of 500 μmol/L FITC-labeled peptide solution applied on back skin, three hours
Experimental: The experiments were performed using 8-week old SD rats (body weight 250 g). The back of SD rats was shaved, and the FITC-labeled peptide and control peptide prepared in Example 1 were each dissolved in a phosphate buffer (PBS, pH=7.4) to prepare a solution having a concentration of 500 μmol/L. The SD rats were divided into three groups, including: 1) a control group, in which no polypeptide solution was applied on the back; 2) a control group, in which the peptide as shown in SEQ ID NO: 3 was applied on the dorsal epidermis of rats; and 3) a treatment group, in which the peptide as shown in SEQ ID NO: 1 was applied on the back skin of rats. The rats in Groups 2) and 3) were each applied with 50 μL of the polypeptide solution. After three hours, the polypeptide in the applied area was washed off; the SD rats were sacrificed, and the skin applied with the polypeptide was taken, frozen, sectioned, and then observed under a fluorescence microscope.

[1] = isoelectric point of the transdermal peptide; assay type: physicochemical

Which “fluorescence in the dermal tissue of the skin” value (skin of SD rats) does the source give for `CC[C@H](C)[C@H](NC(=O)[C@H](CC(=O)O)NC(=O)[C@H](CCCCN)NC(=O)[C@H](CO)NC(=O)[C@H](Cc1c[nH]c2ccccc12)NC(=O)[C@H](C)NC(=O)[C@H](CC(C)C)NC(=O)[C@H](Cc1c[nH]cn1)NC(=O)[C@H](CC(=O)O)NC(=O)[C@H](CCC(=O)O)NC(=O)[C@@H](NC(=O)[C@H](CO)NC(=O)[C@H](CC(=O)O)NC(=O)[C@@H](NC(=O)[C@H](CO)NC(=O)[C@H](CC(C)C)NC(=O)[C@H](C)NC(=O)[C@@H](NC(=S)Nc1ccc2c(c1)C(=O)OC21c2ccc(O)cc2Oc2cc(O)ccc21)[C@@H](C)CC)[C@@H](C)CC)C(C)C)C(=O)N[C@@H](CC(N)=O)C(=O)N[C@@H](C)C(=O)O` [irrelevant control polypeptide, reference compound] ({FITC}-IALSIDSVEDHLAWSKDINA-OH) here?
The value was “no green fluorescence in the dermal tissue”.

With `CC(C)C[C@H](NC(=O)[C@H](Cc1ccc(O)cc1)NC(=O)[C@H](CCCCN)NC(=O)[C@H](CCCCN)NC(=O)CNC(=O)[C@H](CO)NC(=O)[C@@H]1CCCN1C(=O)[C@H](CC(C)C)NC(=O)[C@H](CCC(=O)O)NC(=O)[C@H](CCCCN)NC(=O)[C@@H](NC(=O)[C@H](Cc1ccccc1)NC(=O)[C@@H](NC(=O)CNC(=O)[C@H](CCCCN)NC(=O)[C@@H]1CCCN1C(=O)[C@H](Cc1ccccc1)NC(=O)[C@H](CC(C)C)NC(=O)[C@H](CCCCN)NC(=O)[C@H](CCCCN)NC(=S)Nc1ccc2c(c1)C(=O)OC21c2ccc(O)cc2Oc2cc(O)ccc21)C(C)C)[C@@H](C)O)C(=O)N[C@@H](CCCNC(=N)N)C(=O)O` [peptide of the present invention] ({FITC}-KKLFPKGVFTKELPSGKKYLR-OH) as the compound, how does the “fluorescence in the dermal tissue of the skin” value (skin of SD rats) read?
The value was “clearly observed in the skin appendages of the dermis”.

For “transdermal peptide with a nuclear localization ability: transdermal peptide with amino acid sequence as shown in SEQ ID NO: 1, enters eukaryotic cells autonomously (KKLFPKGVFTKELPSGKKYLR; Transdermal peptide)”, which isoelectric point [1] is on record?
The isoelectric point was 10.92.
